Laboratory results as given in US20080039528A1, “Zinc finger ejectors and methods of use thereof” (KANSAS STATE UNIVERSITY RESEARCH FOUNDATION, priority 2004, published 2008).
Like-named read-outs stand apart in the source and are kept apart here.

Legend:
P. falciparum W2 = experiment: Inhibition of the growth of P. falciparum W2 clone ([3H]-hypoxanthine uptake); assay type: cell-based, Plasmodium falciparum; settings: for IC50: read-out: W2, IC50; for IC90: read-out: W2, IC90
Description: (§1) Inhibition of the growth of P. falciparum. A reported method for the inhibition of the growth of P. falciparum was followed. The incubation period of the parasites was 66 h and the starting parasitemia was 0.2% with a 1% hematocrit. The medium used was RPMI-1640 culture medium with no folate or p-aminobenzoic acid and 10% normal heat-inactivated human plasma, and P. falciparum D6 and W2 clones were used. D6 is a clone from the Sierra I/UNC isolates and is susceptible to chloroquine and pyrimethamine but has reduced susceptibilities to mefloquine and halofantrine. W2 is a clone of the Indochina I isolate and is resistant to chloroquine and pyrimethamine but susceptible to mefloquine. […] The diluted compounds were transferred ([…]) to test plates, 200 µL of parasitized erythrocytes (0.2% parasitemia and 1% hematocrit) was added, and was incubated at 37° C. in a controlled environment of 5% CO2, 5% O2, and 90% N2. After 42 h, 25 µL of [^3H]-hypoxanthine was added and the plates were incubated for an additional 24 h. The plates were then frozen at −70° C. to lyse the red cells and later thawed and harvested onto glass fiber filter mats by using a 96-well cell harvester. The filter mats were counted in a scintillation counter and the data were downloaded with the custom, automated analysis software developed by WRAIR. For each compound, the concentration-response profile was determined and 50% inhibitory concentrations (IC50) were determined by using a nonlinear, logistic dose-response analysis program.

P. falciparum D6 = experiment: Inhibition of the growth of P. falciparum D6 clone ([3H]-hypoxanthine uptake); assay type: cell-based, Plasmodium falciparum; settings: for inhibitory activities (in words): P. falciparum D6 and W2 and L. donovani parasites, summary statement; for IC50: read-out: D6, IC50; for IC90: read-out: D6, IC90
Description: as §1

Solubility (qualitative) = assay type: physicochemical
[1] = test system: L. donovani axenic amastigote-like parasites; experiment: Inhibition of the growth of L. donovani axenic amastigotes (3-day CellTiter 96 assay); assay type: cell-based, Leishmania donovani; settings: 3-day assay
Description: Inhibition of the growth of L. donovani parasites. A reported method for the inhibition of the growth of L. donovani parasites was followed. L. donovani axenic amastigotes were maintained in modified RPMI medium as previously described. Inhibition of growth by the compounds was measured in a 3-day assay using the tetrazolium dye-based CellTiter 96 Aqueous Non-Radioactive Cell Proliferation Assay Kit (Promega, Madison, Wis., USA) as previously described. The known anti-leishmaniasis drug, pentamidine, was used as a control.

[2] = Plasmodium falciparum, W2, 66 h, P. falciparum W2 intraerythrocytic forms, 66 h incubation
[3] = Plasmodium falciparum, D6, 66 h, P. falciparum D6 intraerythrocytic forms, 66 h incubation
[4] = P. falciparum W2 intraerythrocytic forms, 66 h incubation
[5] = P. falciparum D6 intraerythrocytic forms, 66 h incubation
[6] = Plasmodium falciparum, W2, 66 h
[7] = Plasmodium falciparum, D6, 66 h
[8] = Plasmodium falciparum, P. falciparum W2 intraerythrocytic forms, 66 h incubation

SMILES	IC50 (P. falciparum W2; [2]) [nM]	inhibitory activities (in words) (P. falciparum D6)	IC50 (P. falciparum D6; [3]) [nM]	IC50 (P. falciparum W2; [4]) [nM]	IC50 (P. falciparum D6; [5]) [nM]	other results
O=C(O)c1ccc(OC/C=C/COc2ccc(C(=O)O)cc2)cc1 [Biscarboxylic acid 8, trans-1,4-Bis-[4-(hydroxycarbonyl)phenoxy]-2-butene]	> 60000	do not show inhibitory activities	> 60000	–	–	–
O=C([N-]O)c1ccc(OCCOCCOc2ccc(C(=O)[N-]O)cc2)cc1.[Na+].[Na+] [Bishydroxamic acid sodium salt 12, 2,2′-Bis-[(4-hydroxy-sodio-aminocarbonyl)phenoxy]ethyl ether]	–	–	–	360	260	IC90 (P. falciparum W2; [4]): 600 nM; IC90 (P. falciparum D6; [5]): 520 nM; solubility in water (Solubility (qualitative)): soluble in water; IC50 [1]: 37400 ± 14000 nM
O=C(O)c1ccc(OCCCCCOc2ccc(C(=O)O)cc2)cc1 [Biscarboxylic acid 6, 1,5-Bis-[4-(hydroxycarbonyl)phenoxy]pentane]	> 60000	do not show inhibitory activities	> 60000	–	–	–
O=C(NO)c1ccc(OCCOCCOc2ccc(C(=O)NO)cc2)cc1 [Bishydroxamic acid 3, 2,2′-Bis-[(4-hydroxyaminocarbonyl)phenoxy]ethyl ether]	–	–	–	350	240	IC90 (P. falciparum W2; [4]): 600 nM; IC90 (P. falciparum D6; [5]): 470 nM; solubility in DMSO (Solubility (qualitative); DMSO): soluble in DMSO; solubility in water (Solubility (qualitative)): only slightly soluble in water; IC50 [1]: 18500 ± 6000 nM
CCN(CC)CCCC(C)Nc1ccnc2cc(Cl)ccc12 (centres unmarked) [Chloroquine, reference compound]	–	–	–	–	–	IC50 (P. falciparum W2; [6]): 450 nM; IC90 (P. falciparum W2; [6]): 650 nM; IC50 (P. falciparum D6; [7]): 13 nM; IC90 (P. falciparum D6; [7]): 14 nM
O=C(O)c1ccc(OCCOCCOc2ccc(C(=O)O)cc2)cc1 [Biscarboxylic acid 10, 2,2′-Bis-[(4-hydroxycarbonyl)phenoxy]ethyl ether]	–	do not show inhibitory activities	–	> 38000	> 38000	IC50 [1]: > 100000 nM
O=C(NO)c1ccc(OC/C=C/COc2ccc(C(=O)NO)cc2)cc1 [Bishydroxamic acid 2, trans-1,4-Bis[4-(hydroxyaminocarbonyl)phenoxy]-2-butene]	1050	–	690	–	–	IC90 (P. falciparum W2; [8]): 2570 nM; IC90 (P. falciparum D6; [3]): 1800 nM
COC(=O)c1ccc(OCCOCCOc2ccc(C(=O)OC)cc2)cc1 [Bisester 9, 2,2′-Bis-(4-methoxycarbonylphenoxy)ethyl ether]	–	do not show inhibitory activities	–	> 60000	> 60000	IC50 [1]: > 100000 nM
N=C(N)c1ccc(OCCCCCOc2ccc(C(=N)N)cc2)cc1 [Pentamidine, reference compound]	–	–	–	–	–	IC50 ([1]; Leishmania donovani, 72 h): 1190 ± 120 nM
COC(=O)c1ccc(OC/C=C/COc2ccc(C(=O)OC)cc2)cc1 [Bisester 7, trans-1,4-Bis-(4-methoxycarbonylphenoxy)-2-butene]	> 60000	do not show inhibitory activities	> 60000	–	–	–
O=C([N-]O)c1ccc(OCCCCCOc2ccc(C(=O)[N-]O)cc2)cc1.[Na+].[Na+] [Bishydroxamic acid sodium salt 11, 1,5-Bis-[4-(hydroxy-sodio-aminocarbonyl)phenoxy]pentane]	–	–	–	1090	1000	IC90 (P. falciparum D6; [5]): 2000 nM; solubility in water (Solubility (qualitative)): soluble in water
COC(=O)c1ccc(OCCCCCOc2ccc(C(=O)OC)cc2)cc1 [Bisester 5, 1,5-Bis-(4-methoxycarbonylphenoxy)pentane]	> 60000	do not show inhibitory activities	> 60000	–	–	–
OC(c1cc(C(F)(F)F)nc2c(C(F)(F)F)cccc12)C1CCCCN1 (centres unmarked) [Mefloquine, reference compound]	–	–	13	–	–	IC50 (P. falciparum W2; Plasmodium falciparum, W2, P. falciparum W2, value in nM): 8 nM; IC90 (P. falciparum W2; [8]): 15 nM; IC90 (P. falciparum D6; [3]): 240 nM
O=C(NO)c1ccc(OCCCCCOc2ccc(C(=O)NO)cc2)cc1 [Bishydroxamic acid 1, 1,5-Bis-[4-(hydroxyaminocarbonyl)phenoxy]pentane]	–	–	–	3200	2200	IC90 (P. falciparum D6; [5]): 6200 nM
